These results are taken from patent US20130131043A1, “PYRAZOLE COMPOUNDS AS JAK INHIBITORS” (priority 2010, published 2013).

As usually defined, the pIC50 is the IC50 on a negative log10 scale, so that one unit is a factor of ten.

The conditions of experiment [1]: in vivo; cited from earlier work.
The target in experiment [2] is T1, JAK2 (Homo sapiens, UniProt O60674).
T1 construct: endogenous in cells; host or cells: Molt4 (ATCC CRL-1582) and Ramos (ATCC CRL-1596) cell lysate; mixed Molt4/Ramos lysate 1:2
T1 sequence (O60674 whole entry): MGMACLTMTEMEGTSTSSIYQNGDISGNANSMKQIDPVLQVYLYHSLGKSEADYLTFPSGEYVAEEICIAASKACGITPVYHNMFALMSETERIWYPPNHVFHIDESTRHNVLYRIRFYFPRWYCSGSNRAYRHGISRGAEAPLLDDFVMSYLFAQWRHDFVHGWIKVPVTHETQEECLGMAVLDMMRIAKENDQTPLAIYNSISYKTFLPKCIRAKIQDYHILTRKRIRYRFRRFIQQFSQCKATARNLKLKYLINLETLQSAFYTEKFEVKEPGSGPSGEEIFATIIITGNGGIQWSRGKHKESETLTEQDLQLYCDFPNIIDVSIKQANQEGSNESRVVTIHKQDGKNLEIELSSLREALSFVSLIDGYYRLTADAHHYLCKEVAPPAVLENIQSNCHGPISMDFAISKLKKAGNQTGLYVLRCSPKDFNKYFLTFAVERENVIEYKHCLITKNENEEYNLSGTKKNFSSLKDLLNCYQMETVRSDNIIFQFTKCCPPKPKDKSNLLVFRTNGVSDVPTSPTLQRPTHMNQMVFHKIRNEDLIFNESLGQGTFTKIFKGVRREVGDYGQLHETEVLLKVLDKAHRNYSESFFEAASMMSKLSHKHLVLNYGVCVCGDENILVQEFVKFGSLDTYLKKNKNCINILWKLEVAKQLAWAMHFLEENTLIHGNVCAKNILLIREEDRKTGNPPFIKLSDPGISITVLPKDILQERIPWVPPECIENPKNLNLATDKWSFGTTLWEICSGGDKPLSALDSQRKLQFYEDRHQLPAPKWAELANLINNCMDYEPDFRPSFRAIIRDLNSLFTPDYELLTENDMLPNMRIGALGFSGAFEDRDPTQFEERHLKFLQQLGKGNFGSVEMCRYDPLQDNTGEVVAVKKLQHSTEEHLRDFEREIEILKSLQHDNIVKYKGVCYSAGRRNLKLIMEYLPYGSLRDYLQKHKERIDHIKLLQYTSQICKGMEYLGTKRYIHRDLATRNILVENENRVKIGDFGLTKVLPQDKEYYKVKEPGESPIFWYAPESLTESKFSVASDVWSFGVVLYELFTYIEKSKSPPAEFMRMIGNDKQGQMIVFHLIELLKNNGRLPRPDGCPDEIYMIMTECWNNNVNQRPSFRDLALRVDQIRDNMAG
As to the kind of experiment: Kinobeads assay, JAK2 (competition binding in cell lysate, dot blot detection). To be noted: mixed Molt4/Ramos lysate. Summed up:
(§1)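 Competition binding of compound against immobilized aminopyrido-pyrimidine affinity beads in mixed Molt4/Ramos lysate (1:2, 10 mg/mL protein), 3 h in cold room. Bead-bound JAK2 or JAK3 eluted and quantified by antibody dot blot with infrared detection; IC50 from 9-step 1:3 dose-response curves.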

Experiment [3] deals with T2, JAK3 (Homo sapiens, UniProt P52333).
T2 construct: endogenous in cells; host or cells: Molt4 (ATCC CRL-1582) and Ramos (ATCC CRL-1596) cell lysate; mixed Molt4/Ramos lysate 1:2
T2 sequence (P52333 1-1124): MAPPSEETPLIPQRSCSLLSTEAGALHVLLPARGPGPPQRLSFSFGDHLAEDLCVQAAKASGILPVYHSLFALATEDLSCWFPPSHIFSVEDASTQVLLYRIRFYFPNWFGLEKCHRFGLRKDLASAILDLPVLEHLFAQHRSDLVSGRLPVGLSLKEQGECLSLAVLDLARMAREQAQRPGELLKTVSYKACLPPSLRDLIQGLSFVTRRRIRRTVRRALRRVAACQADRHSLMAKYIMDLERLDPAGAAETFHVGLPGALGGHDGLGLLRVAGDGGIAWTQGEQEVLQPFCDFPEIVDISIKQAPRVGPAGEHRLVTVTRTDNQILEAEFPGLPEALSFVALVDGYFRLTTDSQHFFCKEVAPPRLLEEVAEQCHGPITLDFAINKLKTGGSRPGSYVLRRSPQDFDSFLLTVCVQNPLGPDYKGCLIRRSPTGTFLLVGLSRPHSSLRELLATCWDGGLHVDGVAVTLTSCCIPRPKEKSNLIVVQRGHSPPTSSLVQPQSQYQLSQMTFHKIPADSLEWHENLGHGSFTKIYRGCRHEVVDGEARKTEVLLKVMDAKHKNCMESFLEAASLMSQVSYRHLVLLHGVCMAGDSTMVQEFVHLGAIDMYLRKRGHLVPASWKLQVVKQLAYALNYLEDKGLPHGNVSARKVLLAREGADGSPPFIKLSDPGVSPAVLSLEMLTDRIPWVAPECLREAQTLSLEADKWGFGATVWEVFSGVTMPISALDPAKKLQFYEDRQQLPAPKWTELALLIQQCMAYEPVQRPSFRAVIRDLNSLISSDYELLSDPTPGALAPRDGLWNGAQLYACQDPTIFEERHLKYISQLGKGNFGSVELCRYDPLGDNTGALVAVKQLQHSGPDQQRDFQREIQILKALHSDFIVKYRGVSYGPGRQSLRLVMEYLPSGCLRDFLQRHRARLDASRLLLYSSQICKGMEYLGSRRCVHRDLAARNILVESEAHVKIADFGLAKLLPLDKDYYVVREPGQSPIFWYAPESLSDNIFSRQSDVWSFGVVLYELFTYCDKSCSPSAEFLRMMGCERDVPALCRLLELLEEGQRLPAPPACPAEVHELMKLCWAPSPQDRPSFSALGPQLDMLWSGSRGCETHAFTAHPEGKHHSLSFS
As to the kind of experiment: Kinobeads assay, JAK3 (competition binding in cell lysate, dot blot detection). To be noted: mixed Molt4/Ramos lysate. The gist of the method: as §1

For experiment [4] the following is noted: NOD mouse model of type I diabetes; cited from earlier work.
For experiment [5] the following is noted: in vivo; cited from earlier work. This is another data set of the same source.

pIC50: −log10 of the molar value.

In the case of `C[C@@H]1CCN(C(=O)CC#N)C[C@@H]1N(C)c1ncnc2[nH]ccc12` [CP-690,550], the “efficacy in an animal model of organ transplantation” value in experiment [1] is “show efficacy”. As for `Cn1cc(Nc2ncc3cnn(CC4CCCN(C(=O)C(F)(F)F)C4)c3n2)cn1` (stereo not drawn) [Example 47, 2,2,2-trifluoro-1-(3-((6-((1-methyl-1H-pyrazol-4-yl)amino)-1H-pyrazolo[3,4-d]pyrimidin-1-yl)methyl)piperidin-1-yl)ethanone], the pIC50 was 5.00 to 6.00 in experiment [2] and 6.00 to 7.00 in experiment [3]. For `Cn1cc(Nc2ncc3cnn(CC4CCN(S(C)(=O)=O)C4)c3n2)cn1` (stereo not drawn) [Example 48, N-(1-methyl-1H-pyrazol-4-yl)-1-((1-(methylsulfonyl)pyrrolidin-3-yl)methyl)-1H-pyrazolo[3,4-d]pyrimidin-6-amine], the pIC50 is below 5.00 in experiment [2] and 6.00 to 7.00 in experiment [3]. Regarding `Cn1cc(Nc2ncc3cnn(CC4CN(CCC#N)C4)c3n2)cn1` [Example 49, 3-(3-((6-((1-methyl-1H-pyrazol-4-yl)amino)-1H-pyrazolo[3,4-d]pyrimidin-1-yl)methyl)azetidin-1-yl)propanenitrile], the pIC50 in experiment [2] is below 5.00; in experiment [3] it was 6.00 to 7.00. The matching figures for `CCNC(=O)N1CCCC(Cn2ncc3cnc(Nc4cnn(C)c4)nc32)C1` (stereo not drawn) [Example 51, N-ethyl-3-((6-((1-methyl-1H-pyrazol-4-yl)amino)-1H-pyrazolo[3,4-d]pyrimidin-1-yl)methyl)piperidine-1-carboxamide]: 5.00 to 6.00 and above 7.00. In the same order, the values of `Cn1cc(Nc2ncc3cnn(CC4CCCN(C(=O)NC5CC5)C4)c3n2)cn1` (stereo not drawn) [Example 52, N-cyclopropyl-3-((6-((1-methyl-1H-pyrazol-4-yl)amino)-1H-pyrazolo[3,4-d]pyrimidin-1-yl)methyl)piperidine-1-carboxamide] are 5.00 to 6.00 and above 7.00.

On to `Cn1cc(Nc2ncc3cnn(CC4CCN(CCC#N)C4)c3n2)cn1` (stereo not drawn) [Example 53, 3-(3-((6-((1-methyl-1H-pyrazol-4-yl)amino)-1H-pyrazolo[3,4-d]pyrimidin-1-yl)methyl)pyrrolidin-1-yl)propanenitrile], for which the pIC50 was 5.00 to 6.00 in experiment [2] and above 7.00 in experiment [3].

Regarding `Cn1cc(Nc2ncc3cnn(CC4CCCN(CC#N)C4)c3n2)cn1` (stereo not drawn) [Example 54, 2-(3-((6-((1-methyl-1H-pyrazol-4-yl)amino)-1H-pyrazolo[3,4-d]pyrimidin-1-yl)methyl)piperidin-1-yl)acetonitrile], the pIC50 in experiment [2] is 5.00 to 6.00; in experiment [3], above 7.00. Consider `CCN1CCCC(Cn2ncc3cnc(Nc4cnn(C)c4)nc32)C1` (stereo not drawn) [Example 55, 1-((1-ethylpiperidin-3-yl)methyl)-N-(1-methyl-1H-pyrazol-4-yl)-1H-pyrazolo[3,4-d]pyrimidin-6-amine], for which the pIC50 in experiment [2] was 5.00 to 6.00; in experiment [3], above 7.00.

As for `CSCCC(=O)N1CCCC(Cn2ncc3cnc(Nc4cnn(CC(F)F)c4)nc32)C1` (stereo not drawn) [Example 56, 1-(3-((6-((1-(2,2-difluoroethyl)-1H-pyrazol-4-yl)amino)-1H-pyrazolo[3,4-d]pyrimidin-1-yl)methyl)piperidin-1-yl)-3-(methylthio)propan-1-one], the values for the negative logarithm of the IC50 (pIC50) in experiment [2] and in experiment [3] were below 5.00 and 6.00 to 7.00, respectively. In the same order, the values of `N#CCCN1CCCC(Cn2ncc3cnc(Nc4cnn(CC(F)F)c4)nc32)C1` (stereo not drawn) [Example 57, 3-(3-((6-((1-(2,2-difluoroethyl)-1H-pyrazol-4-yl)amino)-1H-pyrazolo[3,4-d]pyrimidin-1-yl)methyl)piperidin-1-yl)propanenitrile] are below 5.00 and above 7.00.

For the compound `COCCCN1CCCC(Cn2ncc3cnc(Nc4cnn(C)c4)nc32)C1` (stereo not drawn) [Example 58, 1-((1-(3-methoxypropyl)piperidin-3-yl)methyl)-N-(1-methyl-1H-pyrazol-4-yl)-1H-pyrazolo[3,4-d]pyrimidin-6-amine], the pIC50 is below 5.00 in experiment [2] and 6.00 to 7.00 in experiment [3]. For `CS(=O)(=O)CCC(=O)N1CCCC(Cn2ncc3cnc(Nc4cnn(CC(F)F)c4)nc32)C1` (stereo not drawn) [Example 59, 1-(3-((6-((1-(2,2-difluoroethyl)-1H-pyrazol-4-yl)amino)-1H-pyrazolo[3,4-d]pyrimidin-1-yl)methyl)piperidin-1-yl)-3-(methylsulfonyl)propan-1-one], the pIC50 in experiment [2] is below 5.00; in experiment [3], 6.00 to 7.00. In the same order, the values of `N#CCN1CCCC(Cn2ncc3cnc(Nc4cnn(CC(F)F)c4)nc32)C1` (stereo not drawn) [Example 60, 2-(3-((6-((1-(2,2-difluoroethyl)-1H-pyrazol-4-yl)amino)-1H-pyrazolo[3,4-d]pyrimidin-1-yl)methyl)piperidin-1-yl)acetonitrile] are 5.00 to 6.00 and 6.00 to 7.00. In the same order, the values of `CC(C)S(=O)(=O)N1CCCC(Cn2ncc3cnc(Nc4cnn(CC(F)F)c4)nc32)C1` (stereo not drawn) [Example 61, N-(1-(2,2-difluoroethyl)-1H-pyrazol-4-yl)-1-((1-(isopropylsulfonyl)piperidin-3-yl)methyl)-1H-pyrazolo[3,4-d]pyrimidin-6-amine] are 5.00 to 6.00 and above 7.00. `Cn1cc(Nc2ncc3cnn(CC4CCCN(CCCS(C)(=O)=O)C4)c3n2)cn1` (stereo not drawn) [Example 62, N-(1-methyl-1H-pyrazol-4-yl)-1-((1-(3-(methylsulfonyl)propyl)piperidin-3-yl)methyl)-1H-pyrazolo[3,4-d]pyrimidin-6-amine]: the pIC50 in experiment [2] is 5.00 to 6.00; in experiment [3] it was above 7.00. For `CC(C)NC(=O)CN1CCCC(Cn2ncc3cnc(Nc4cnn(C)c4)nc32)C1` (stereo not drawn) [Example 63, N-isopropyl-2-(3-((6-((1-methyl-1H-pyrazol-4-yl)amino)-1H-pyrazolo[3,4-d]pyrimidin-1-yl)methyl)piperidin-1-yl)acetamide], the figures for the pIC50 in experiment [2] and in experiment [3] were below 5.00 and 6.00 to 7.00, respectively. Regarding `CNC(=O)CN1CCCC(Cn2ncc3cnc(Nc4cnn(C)c4)nc32)C1` (stereo not drawn) [Example 64, N-methyl-2-(3-((6-((1-methyl-1H-pyrazol-4-yl)amino)-1H-pyrazolo[3,4-d]pyrimidin-1-yl)methyl)piperidin-1-yl)acetamide], the pIC50 was 5.00 to 6.00 in experiment [2] and above 7.00 in experiment [3].

As for `CN(C)C(=O)N1CCCC(Cn2ncc3cnc(Nc4cnn(C)c4)nc32)C1` (stereo not drawn) [Example 65, N,N-dimethyl-3-((6-((1-methyl-1H-pyrazol-4-yl)amino)-1H-pyrazolo[3,4-d]pyrimidin-1-yl)methyl)piperidine-1-carboxamide], the results for the negative logarithm of the IC50 (pIC50) in experiment [2] and in experiment [3] were 5.00 to 6.00 and above 7.00, respectively. The matching figures for `Cn1cc(Nc2ncc3cnn(CC4CCCN(CCO)C4)c3n2)cn1` (stereo not drawn) [Example 66, 2-(3-((6-((1-methyl-1H-pyrazol-4-yl)amino)-1H-pyrazolo[3,4-d]pyrimidin-1-yl)methyl)piperidin-1-yl)ethanol]: 5.00 to 6.00 and above 7.00.

With `Cn1cc(Nc2ncc3cnn(CC4CCCN(CC(F)F)C4)c3n2)cn1` (stereo not drawn) [Example 67, 1-((1-(2,2-difluoroethyl)piperidin-3-yl)methyl)-N-(1-methyl-1H-pyrazol-4-yl)-1H-pyrazolo[3,4-d]pyrimidin-6-amine], the pIC50 in experiment [2] is 5.00 to 6.00; in experiment [3] it was above 7.00.

In the case of `CC(C)NC(=O)CN1CCC(Cn2ncc3cnc(Nc4cnn(C)c4)nc32)C1` (stereo not drawn) [Example 68, N-isopropyl-2-(3-((6-((1-methyl-1H-pyrazol-4-yl)amino)-1H-pyrazolo[3,4-d]pyrimidin-1-yl)methyl)pyrrolidin-1-yl)acetamide], the pIC50 in experiment [2] was below 5.00; in experiment [3] it was 6.00 to 7.00. Turning to `COc1cc2ncnc(Nc3ccc(O)cc3)c2cc1OC` [JANEX-1], the “spontaneous autoimmune diabetes development” value in experiment [4] is listed as “prevent spontaneous autoimmune diabetes development”. Moreover, in experiment [5], the “severity of GVHD” value is recorded as “attenuate the severity of GVHD”.
